For one data set, the system named is (2S,3S)-2,3-butanediol dehydrogenase. Put plainly: Dehydrogenase (oxidative) activity of the purified enzyme on various substrates, NAD+ as coenzyme. Particulars: oxidation; substrate 50 mM, standard reaction condition; activity on (2S,3S)-2,3-butanediol taken as 100. Format: biochemical, Zoogloea ramigera. As for the experimental part: (§1) React a reaction solution containing 50 mM glycine-sodium hydroxide buffer (pH 11.0), 2.5 mM NAD^+, 50 mM (2S,3S)-2,3-butanediol and the enzyme at 30° C. Then, measure the increase of absorbance at 340 nm relative to the increase of NADH. 1 U is defined as the amount of enzyme that catalyzes a 1-μmol increase of NADH in 1 minute.
The dehydrogenase activity of the enzyme obtained in Example 1 was measured against various substrates (50 mM) under the standard reaction condition.
Chain of L-2,3-butanediol dehydrogenase (Q9ZNN8 whole entry): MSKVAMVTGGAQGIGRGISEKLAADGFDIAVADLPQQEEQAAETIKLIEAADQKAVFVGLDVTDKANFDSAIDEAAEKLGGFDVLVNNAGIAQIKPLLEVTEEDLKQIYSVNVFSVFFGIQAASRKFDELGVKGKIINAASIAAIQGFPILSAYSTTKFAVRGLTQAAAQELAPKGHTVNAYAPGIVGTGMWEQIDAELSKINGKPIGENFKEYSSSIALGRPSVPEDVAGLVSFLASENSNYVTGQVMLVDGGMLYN
Take `C[C@@H](O)[C@@H](C)O` [(2R,3R)-2,3-butanediol]: the “Relative activity (%)” value came out at 2.89%.
Turning to `C[C@H](O)[C@H](C)O` [(2S,3S)-2,3-butanediol], the “Relative activity (%)” value is recorded as 100%.
With `C[C@@H](O)CO` [(R)-1,2-propanediol], the “Relative activity (%)” value was 0.90%.
Consider `OC[C@@H](O)CCl` [(R)-3-chloro-1,2-propanediol], for which the “Relative activity (%)” value worked out at 3.62%.
As for `C[C@H](O)CO` [(S)-1,2-propanediol], the “Relative activity (%)” value was 55.3%.
`OC[C@H](O)CCl` [(S)-3-chloro-1,2-propanediol]: the “Relative activity (%)” value was 0%.
In the case of `CC(=O)C(C)O` (stereo not drawn) [Acetoin], the “Relative activity (%)” value turned out to be 0.26%.
Turning to `CC(O)C(C)O` (stereo not drawn) [meso-2,3-butanediol], the “Relative activity (%)” value came out at 0%.
Turning to (R)-2-butanol, the “Relative activity (%)” value came out at 1.11%.
The same measure, in the same setting: the figure for (S)-2-butanol is 43.3%.

The test system is the same in another data set. The data set can be described thus: Reductive activity of the purified enzyme on various substrates, NADH as coenzyme. Particulars: reduction; substrate 50 mM, standard reaction condition; activity on 2,3-butanedione taken as 100. Format: biochemical, Zoogloea ramigera. The method, then: React a reaction solution containing 50 mM potassium phosphate buffer (pH 5.5), 0.2 mM NADH, 20 mM 2,3-butanedione and the enzyme at 30° C. Then, measure the decrease of absorbance at 340 nm relative to the decrease of NADH. 1 U is defined as the amount of enzyme that catalyzes a 1-μmol decrease of NADH in 1 minute. The protein can be quantified by a dye binding method using BioRad protein assay kit.
The reductive activity of the enzyme obtained in Example 1 was measured on various substrates (50 mM) under the standard reaction condition.
As to `CC(=O)C(C)=O` [2,3-Butanedione], the “Relative activity (%)” value amounted to 100%.
Still for that read-out and setting: for `CC(=O)C(C)O` (stereo not drawn) [Acetoin] the value was 58.9%.

A further data set shares this test system. Put plainly: Activation of (2S,3S)-2,3-butanediol dehydrogenase activity by divalent ions. Format: biochemical, Zoogloea ramigera. The following applies: divalent ion 1 mM; activity in the absence of the ions taken as 100. As for the experimental part: as §1
The activation effect by a divalent ion can be measured as described above by adding 1 mM of a metal ion into the above-mentioned reaction solution.
As for `[Ba+2]` [Ba^2+], the “Relative activity (%)” value stood at 112%.
Regarding `[Ca+2]` [Ca^2+], the “Relative activity (%)” value is listed as 113%.
Still for that read-out and setting: for `[Co+2]` [Co^2+] the value was 106%; for `[Cu+2]` [Cu^2+], 107%; for `[Mg+2]` [Mg^2+], 110%.
With `[Mn+2]` [Mn^2+], the “Relative activity (%)” value was 104%.
With `[Ni+2]` [Ni^2+], the “Relative activity (%)” value was 104%.
On the same count and under the same terms, for `[Zn+2]` [Zn^2+] the value was 109%.

Tested on in the next data set: not listed separately
The data set can be described thus: (2S,3S)-2,3-butanediol oxidation activity of enzyme preparations from Zoogloea ramigera. The format is biochemical. The following applies: fraction after each purification step. As for the experimental part: as §1
Zoogloea ramigera strain DSM287 was cultured at 28° C. for 54 hours in 1.2 L of YPD medium that uses glycerol as a carbon source, and wet bacterial cells were prepared by centrifugation. Approximately 30 g of the obtained wet bacterial cells were suspended in a 50 mL solution of 50 mM potassium phosphate buffer (pH8.0) and 1 mM 2-mercaptoethanol. The cells were then disrupted using Multi-beads shocker (Yasui Kikai), and bacterial cell debris was removed by centrifugation to obtain cell-free extract. Protamine sulfate was added to this cell-free extract and nucleic acids were removed by centrifugation to yield the supernatant. Ammonium sulfate was added to this supernatant up to 30% saturation, and this was applied onto phenyl-sepharose column (2.6 cm×10 cm) equilibrated with standard buffer (10 mM Tris-HCl buffer (pH8.0) and 0.01% 2-mercaptoethanol) comprising 30% ammonium sulfate. After washing the column with the same buffer, gradient elution was performed with 30% to 0% saturated ammonium sulfate. […]
With Hydroxyapatite, the “Specific activity (U/mg)” value worked out at 60.9 U/mg.

The target of the next data set is acetoin reductase (Klebsiella pneumoniae, UniProt Q48436).
Chain of acetoin reductase (Q48436 whole entry): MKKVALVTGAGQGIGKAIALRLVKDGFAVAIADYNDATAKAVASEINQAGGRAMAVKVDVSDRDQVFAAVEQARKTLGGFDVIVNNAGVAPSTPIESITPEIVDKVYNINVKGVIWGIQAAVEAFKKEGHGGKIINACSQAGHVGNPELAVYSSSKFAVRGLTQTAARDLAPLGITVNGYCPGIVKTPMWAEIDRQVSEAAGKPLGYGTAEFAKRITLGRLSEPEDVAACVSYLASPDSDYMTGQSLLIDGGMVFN
Assay: not given
The following applies: J. Ferment. Technol. 83, 32-37 (1997); cited from earlier work.
With `C[C@H](O)[C@H](C)O` [(2S,3S)-2,3-butanediol], the “action of the enzyme on the substrate” value was “doesnot act”.
For the molecule `CC(O)C(C)O` (stereo not drawn) [meso-2,3-butanediol], the “action of the enzyme on the substrate” value is given as “specifically act”.

The next data set addresses L-2,3-butanediol dehydrogenase (Corynebacterium glutamicum, UniProt Q9ZNN8).
Assay: not given
The following applies: Biosci. Biotechnol. Biochem. 65, 1876-1878 (2001); cited from earlier work.
For `CCC(C)O` (stereo not drawn) [2-butanol], the “activity of the enzyme towards the substrate” value is “lacks activity”.

The values are drawn from patent US20050003500A1, “(2S, 3S) -2,3-butanediol dehydrogenase” (Daicel Chemical Industries, Ltd., priority 2003, published 2005).
